Paper PMC7300217, “Surfactin Like Broad Spectrum Antimicrobial Lipopeptide Co-produced With Sublancin From Bacillus subtilis Strain A52: Dual Reservoir of Bioactives” (Frontiers in Microbiology, 2020)

Legend:
[1] = system: B. coagulans MTCC 492; test: MIC, microtiter plate dilution assay; assay type: cell-based; conditions: 5 × 10^5 CFU/ml, 37°C, OD600 after 24 h, triplicate
Procedure: (§1) The minimum inhibitory concentration (MIC) of HPLC purified peptides was evaluated by using microtiter plate dilution assay. The peptide concentration was estimated using BCA protein assay (Thermo Fisher Scientific, United States) method as described by manufacturer. Actively growing test strains (5 × 10^5 CFU/ml) were inoculated in a 96-well plate with different concentrations of the peptides and plates were incubated for 24–48 h at 37°C (final volume in each well is 200 μl). OD was measured at 600 nm after 24 and 48 h for bacteria and yeast, respectively, using ELISA microplate reader (Thermo, United States). MIC against phytopathogenic fungi was determined using 96-well microtiter plate assay ([Kaur et al., 2016]). In 96-well microplates, 100 μl of fungal spore suspension (1 × 10^5 spores/ml) prepared in potato dextrose broth (PDB, Hi-media, India) was mixed with100 μl of fresh PDB containing different concentrations of lipopeptide. Control well contained 100 μl of fungal spore suspension and 100 μl of only medium. The microplates were incubated at 25°C and readings were recorded at 600 nm after 48 h. The lowest concentration showing no growth was considered as MIC. Each test was done in triplicate and optical density (OD600) of peptide treated wells were compared with uninoculated wells (blank medium control).

[2] = system: B. cereus MTCC 430; test: MIC, microtiter plate dilution assay; assay type: cell-based; conditions: 5 × 10^5 CFU/ml, 37°C, OD600 after 24 h, triplicate
Procedure: as §1

[3] = system: S. aureus MTCC 1430; test: Time kill assay; assay type: cell-based, Staphylococcus aureus; conditions: 5X MIC, cells in PBS, CFU plated on nutrient agar
Procedure: Purified AMPs were used to perform time kill assay against S. aureus MTCC 1430 as mentioned earlier ([Baindara et al., 2016]). Actively growing bacterial culture (0.2–0.3 OD at 600 nm) was centrifuged (10,000 rpm for 15 min at 4°C) and washed thrice with sterile PBS buffer. […] Upon incubation for different time intervals, cells were removed from reaction mixture by centrifugation and washed with PBS buffer. Bacterial culture without AMP treatment was used as negative control. Samples were withdrawn at the end of different treatment time points starting from 0 to 8 h, bacterial cells were pelleted, serially diluted, and cell suspensions were plated on nutrient agar plates. For each treatment, negative controls were also processed under identical conditions and plated on NA. CFU at different time intervals were recorded after overnight incubation at 37°C.

[4] = system: C. inconsplicue MTCC 1074; test: MIC, microtiter plate dilution assay; assay type: cell-based; conditions: 5 × 10^5 CFU/ml, 37°C, OD600 after 48 h, triplicate
Procedure: (§2) The antimicrobial activity was tested by well diffusion assay as mentioned earlier ([Singh et al., 2014]). Strain A52 was grown for 24 h in 500 ml of nutrient broth (NB, Hi-media, India) using 1000 ml flask and subsequently cells were removed by centrifugation (10,000 rpm for 15 min at 4°C). Supernatant was filtered through 0.22 μm filter (Millipore, United States) to obtain cell-free fermented broth (CFB) that was used for antimicrobial assay (50 μl) against various indicator strains and the activity was measured as diameter of inhibition zone. Test strains used were Staphylococcus aureus (MTCC 1430), Bacillus subtilis (MTCC 121), B. firmus (MTCC 488), B. licheniformis (MTCC 429), B. thuringiensis (MTCC 1953), Escherichia coli (MTCC 1610), Micrococcus luteus (MTCC 106), Steptococcus pyrogens (MTCC 1928), S. anginosus (MTCC 1929), S. oralis (MTCC 2696), S. mutans (MTCC 497), Candida albicans (MTCC 1637), C. albicans (MTCC 183), C. albicans (MTCC 227), C. tropicalis (MTCC 184), C. glabrata (MTCC 3019), C. haemulonii (MTCC 2766), and C. inconsplicue (MTCC 1074). The phytopathogenic fungi employed in this study were Alternaria brassicicola (MTCC 2102), Colletotrichum acutatum (MTCC 1037), and Fusarium moniliforme (MTCC 158). Clinical isolates of Candida were provided by National Culture Collection of Pathogenic Fungi (NCCPF), PGIMER, Chandigarh, India.
as §1

[5] = system: S. anginosus MTCC1929; test: MIC, microtiter plate dilution assay; assay type: cell-based; conditions: 5 × 10^5 CFU/ml, 37°C, OD600 after 24 h, triplicate
Procedure: as §2, §1

[6] = system: C. haemulonii 470125 (clinical isolate); test: MIC, microtiter plate dilution assay; assay type: cell-based; conditions: 5 × 10^5 CFU/ml, 37°C, OD600 after 48 h, triplicate
Procedure: as §2, §1

[7] = system: S. pyogenes MTCC 1928; test: MIC, microtiter plate dilution assay; assay type: cell-based; conditions: 5 × 10^5 CFU/ml, 37°C, OD600 after 24 h, triplicate
Procedure: as §2, §1

[8] = system: C. glabrata SKSS ID (clinical isolate); test: MIC, microtiter plate dilution assay; assay type: cell-based; conditions: 5 × 10^5 CFU/ml, 37°C, OD600 after 48 h, triplicate
Procedure: as §2, §1

[9] = system: C. aurius 470126 (clinical isolate); test: MIC, microtiter plate dilution assay; assay type: cell-based; conditions: 5 × 10^5 CFU/ml, 37°C, OD600 after 48 h, triplicate
Procedure: as §2, §1

[10] = system: C. tropicalis MTCC 184; test: MIC, microtiter plate dilution assay; assay type: cell-based; conditions: 5 × 10^5 CFU/ml, 37°C, OD600 after 48 h, triplicate
Procedure: as §2, §1

[11] = system: S. aureus MTCC 1430; test: MIC, microtiter plate dilution assay; assay type: cell-based, Staphylococcus aureus; conditions: 5 × 10^5 CFU/ml, 37°C, OD600 after 24 h, triplicate
Procedure: The antimicrobial activity was tested by well diffusion assay as mentioned earlier ([Singh et al., 2014]). Strain A52 was grown for 24 h in 500 ml of nutrient broth (NB, Hi-media, India) using 1000 ml flask and subsequently cells were removed by centrifugation (10,000 rpm for 15 min at 4°C). Supernatant was filtered through 0.22 μm filter (Millipore, United States) to obtain cell-free fermented broth (CFB) that was used for antimicrobial assay (50 μl) against various indicator strains and the activity was measured as diameter of inhibition zone. […]
The minimum inhibitory concentration (MIC) of HPLC purified peptides was evaluated by using microtiter plate dilution assay. […] OD was measured at 600 nm after 24 and 48 h for bacteria and yeast, respectively, using ELISA microplate reader (Thermo, United States). MIC against phytopathogenic fungi was determined using 96-well microtiter plate assay ([Kaur et al., 2016]). […] The microplates were incubated at 25°C and readings were recorded at 600 nm after 48 h. […]

[12] = system: C. albicans MTCC 1637; test: MIC, microtiter plate dilution assay; assay type: cell-based, Candida albicans; conditions: 5 × 10^5 CFU/ml, 37°C, OD600 after 48 h, triplicate
Procedure: as §2, §1

[13] = system: C. albicans MTCC 227; test: MIC, microtiter plate dilution assay; assay type: cell-based, Candida albicans; conditions: 5 × 10^5 CFU/ml, 37°C, OD600 after 48 h, triplicate
Procedure: as §2, §1

[14] = system: C. albicans 400054 (clinical isolate); test: MIC, microtiter plate dilution assay; assay type: cell-based, Candida albicans; conditions: 5 × 10^5 CFU/ml, 37°C, OD600 after 48 h, triplicate
Procedure: as §2, §1

[15] = system: C. albicans MTCC 183; test: MIC, microtiter plate dilution assay; assay type: cell-based, Candida albicans; conditions: 5 × 10^5 CFU/ml, 37°C, OD600 after 48 h, triplicate
Procedure: as §2, §1

[16] = Temperature sensitivity, residual antimicrobial activity; assay type: physicochemical; conditions: residual antimicrobial activity by well diffusion assay at RT; for Residual activity (%), temperature 100 ºC: 100 °C
Procedure: Sensitivity of purified peptides toward temperature, pH, and non-specific proteases was confirmed by performing bioassays. The pH stability was determined by adjusting the pH 2.0–12.0 of peptide aliquots (using 10 mM HCl or NaOH) and incubating for 4 h at room temperature. Samples were neutralized to pH 7.0 before processing for antimicrobial assay. To determine temperature susceptibility, peptides were incubated at different temperatures ranging from 37 to 100°C for 1 h and 121°C for 15 min and residual antimicrobial activity was determined at RT by well diffusion assay. Proteolytic enzymes trypsin and proteinase K (Sigma, United States) were used at three different concentrations (0.1, 1.0, and 5.0 mg/ml) to observe their effect on the peptide. The enzyme solutions were prepared in 50 mM phosphate buffer (pH 7.0). All reactions were performed at 37°C for 6 h followed by deactivation of enzyme by heating the solution in boiling water for 5 min before performing the activity assay.

## Glu^1-Leu/Ile^2-Leu^3-Val^4-Asp^5-Leu^6-Leu/Ile^7 and a β-OH hexadecane fatty acid chain (lariat or depsi) [Lipopeptide A52, cyclic surfactin-like lipopeptide, 7 amino acids and C16 β-hydroxy fatty acid, 1061.9 Da, from B. subtilis strain A52]
[1]
  MIC value, B. coagulans MTCC 492: 2 µg/mL
[2]
  MIC value, B. cereus MTCC 430: 2 µg/mL
[3]
  time of treatment to complete killing / complete reduction of bacterial load: ≤ 7 h
[4]
  MIC value, C. inconsplicue MTCC 1074: 16 µg/mL
[5]
  MIC value, S. anginosus MTCC1929: 4 µg/mL
[6]
  MIC value, C. haemulonii 470125: 28 µg/mL
[7]
  MIC value, S. pyogenes MTCC 1928: 2 µg/mL
[8]
  MIC value, C. glabrata SKSS ID: 16 µg/mL
[9]
  MIC value, C. aurius 470126: 26 µg/mL
[10]
  MIC value, C. tropicalis MTCC 184: 12 µg/mL
[11]
  MIC value, S. aureus MTCC 1430: 4 µg/mL
[12]
  MIC value, C. albicans MTCC 1637: 28 µg/mL
[13]
  MIC value, C. albicans MTCC 227: 24 µg/mL
[14]
  MIC value, C. albicans 400054: 16 µg/mL
[15]
  MIC value, C. albicans MTCC 183: 12 µg/mL
[16]; 37 °C, 1h
  Residual activity (%), temperature 37 ºC: 100%
[16]; 50 °C, 1h
  Residual activity (%), temperature 50 ºC: 100%
[16]; 60 °C, 1h
  Residual activity (%), temperature 60 ºC: 100%
[16]; 70 °C, 1h
  Residual activity (%), temperature 70 ºC: 100%
[16]; 80 °C, 1h
  Residual activity (%), temperature 80 ºC: 100%
[16]; 1h, listed as Lipopeptide
  Residual activity (%), temperature 100 ºC: 100%
[16]; 1h, listed as surfactin-like lipopeptide
  Residual activity (%), temperature 100 ºC: not affected
[16]; 121 °C, 15 min (15 lbs)
  Residual activity (%), temperature 121 ºC (autoclaving): 89.0%
